Laboratory results published in patent US5196410A, “Transdermal flux enhancing compositions” (priority 1991, dated 1993).
Values after ≈ are worked out from the molar mass of the structure shown. Read-outs that look alike come from different tables or passages of the source. One block for each compound: values may come before it.

Experiments:
[1] = Differential scanning calorimetry of fatty acid treated porcine stratum corneum; settings: stratum corneum treated with […] fatty acid in ethanol, 30% (w/w) water
Method: (§1) Stratum corneum sheets were prepared from porcine skin by trypsin treatment. Thus, full thickness porcine skin samples were dermatomed to 350 μm thickness and spread, stratum corneum side up, on filter paper saturated with 0.5% crude trypsin in phosphate buffered saline at pH 7.4 (Sorensen's buffer). After several hours at 37° C. the stratum corneum was peeled away, washed in soybean trypsin inhibitor, water and air dried. Samples were stored desiccated at room temperature until used. Prior to use, dry skin samples of known weight were incubated for two hours in an 0.15M solution of the appropriate fatty acid in ethanol, the samples were then washed for ten seconds in ethanol, spread on wire mesh, dried over a desiccant and the dry sample reweighed. The stratum corneum samples were then held for several days in a chamber at 22° C., 95% relative humidity, during which the stratum corneum samples equilibrated to a water content of 30% (w/w).
(§2) The differential scanning calorimeter^5 was used at a scan rate of 0.75° C./minute. Duplicate samples from each of the above FTIR experiments were combined for DSC measurements. Alternately, stratum corneum samples of known weight (about 20 mg) were treated with each fatty acid in the same manner described above. Treated samples were hydrated for several days at 95% R.H., 22° C. and reweighed.

[2] = assay type: in vitro ADME, porcine
Method: Samples were removed periodically from the receiver side of the diffusion cell, mixed with a Z0 scintillation cocktail (Scintisol, Isolabs, Inc., Akron, OH) and counted for several minutes in a liquid scintillation counter (Model Mark III-6881, Tracor Analytical, Elk Grove Village, IL). Following an initial lag time of about 6 hours, the amount of
salicylic acid appearing in the receiver side was linear with time for the duration of the experiment (routinely 24 to 48 hours). […] This value, when divided by the specific acitivity of salicyclic acid in the saturated solution (approximately 300 dpm/mg) and the area of exposed skin (0.2 cm^2), yielded the flux (mg/cm^2/ hr). Samples removed from the donor side at the beginning and end of the experiment contained, within error, the same amount of salicylic acid. Thus, constant concentration of the permeant was maintained on the donor side throughout the experiment.

[3] = Infrared spectra of fatty acid treated porcine stratum corneum; settings: C-H antisymmetric stretching, stratum corneum treated with […] fatty acid in ethanol, 30% (w/w) water
Method: as §1
Infrared spectra were obtained with a Fourier Transform Infrared Spectrometer^4 (FTIR) equipped with a liquid nitrogen cooled mercury-cadmium telluride detector. In order to prevent water loss, hydrated samples were sealed between zinc sulfide windows while maintained at 22° C., 95% relative humidity. Sealed samples were placed in the spectrometer where an average of 127 scans were obtained in about six minutes for each of the fatty acid treatments. The digitized data were transferred to a computer (Apple IIe) for determination of frequency and bandwidth of the C--H antisymmetric stretching absorbance. Due to the digital nature of the FTIR instrument, absorbance and frequency data exist only in discrete increments. With the instrument used, the exact value of any frequency point could only be determined with a precision not greater than 2.7 cm^-1. The peak frequency was estimated with much greater precision, however, using a center of gravity algorithm for digitized data reported by Cameron et al., Applied Spectr., 36 245-250 (1982).

[4] = for Flux: SD in parentheses
[5] = Method: The in vitro flux of piroxicam was measured from ethanol/buffer vehicles containing 0.25% v/v (0.224% w/v) cis-9-octadecenoic acid (oleic acid). The buffer employed was Sorensen's Buffer, pH 7.3-7.4^3, all experiments were carried out at 32° C. […] Buffer only was introduced into the chamber (receiver) in contact with the internal side of the skin. The donor chamber, in contact with the outer side of the skin was filled with the appropriate ethanol/buffer vehicle containing 0.25% v/v cis-9-octadecenoic acid (oleic acid) and an excess of piroxicam.
[6] = Lipid transition temperature of porcine stratum corneum by DSC in vehicles containing oleic acid
Method: as §1, with “dry skin samples of known weight were incubated for two hours in an 0.15M solution of the appropriate” left out
as §2

[7] = physchem; settings: […] oleic acid, organic solvent or mixture
[8] = saturated salicylic acid in ethanol with […] of the fatty acid, 32° C.

SMILES: CCCCCCCC/C=C/CCCCCCCC(=O)O [Elaidic, elaidic acid]
DSC Tm (temperature of the transition maximum) [1]: 61.5 °C
Flux of Salicylic Acid [2]: 2.35 mg/cm^2 /hr
Peak IR Frequency [3]: 2919.4 cm⁻¹

Flux ([4]; 20% v/v ethanol, 0.5% v/v Azone, 6.8 mg/ml, pH 8.8): 55.9 (38.8) mg/day/30 cm^2
Flux ([4]; 20% v/v ethanol, no Azone, 6.7 mg/ml, pH 8.9): 0.4 (0.04) mg/day/30 cm^2
Flux ([4]; 30% v/v ethanol, 0.5% v/v Azone, 8.1 mg/ml, pH 8.8): 101.4 (10.3) mg/day/30 cm^2
Flux ([4]; 30% v/v ethanol, no Azone, 8.2 mg/ml, pH 8.9): 0.6 (0.2) mg/day/30 cm^2
Flux ([4]; 55% v/v ethanol, 0.5% v/v Azone, 17.5 mg/ml, pH 8.8): 30.8 (6.5) mg/day/30 cm^2
Flux ([4]; 55% v/v ethanol, no Azone, 17.9 mg/ml, pH 9.1): 2.7 (0.5) mg/day/30 cm^2
in vitro transport ([4]; range over vehicles): 30.8 to 101.4 mg/day/30 cm^2
SMILES: Cc1cnc(C(=O)NCCc2ccc(S(=O)(=O)NC(=O)NC3CCCCC3)cc2)cn1 [Glipizide]

Relative Flux ([5]; 0/100 v/v ethanol/buffer, […] v/v oleic acid (reference)): 1.0
Relative Flux ([5]; 20/80 v/v ethanol/buffer, […] v/v oleic acid, relative to 0/100 ethanol/buffer): 1.5
Relative Flux ([5]; 30/70 v/v ethanol/buffer, […] v/v oleic acid, relative to 0/100 ethanol/buffer): 1.8
Relative Flux ([5]; 40/60 v/v ethanol/buffer, […] v/v oleic acid, relative to 0/100 ethanol/buffer): 3.5
Relative Flux ([5]; 50/50 v/v ethanol/buffer, […] v/v oleic acid, relative to 0/100 ethanol/buffer): 5
Relative Flux ([5]; 60/40 v/v ethanol/buffer, […] v/v oleic acid, relative to 0/100 ethanol/buffer): 4.5
Relative Flux ([5]; 70/30 v/v ethanol/buffer, […] v/v oleic acid, relative to 0/100 ethanol/buffer): 4.5
Relative Flux ([5]; 100/0 v/v ethanol/buffer, […] v/v oleic acid, relative to 0/100 ethanol/buffer): 4.5
SMILES: CC(C)Cc1ccc(C(C)C(=O)O)cc1 (centres unmarked) [Ibuprofen, 2-(4-isobutylphenyl)propionic acid]

SMILES: CCCCCCCC/C=C\CCCCCCCC(=O)O [Oleic Acid, cis-9-octadecenoic acid]
DSC Tm (temperature of the transition maximum) [1]: 59.0 ± 1.5 °C
Lipid Transition Temperature, Tm ([6]; 0/100 PEG 200/0.1M Tris buffer (pH 6.8-7.3), […] v/v oleic acid): 59 °C
Lipid Transition Temperature, Tm ([6]; 0/100 ethanol/0.1M Tris buffer (pH 6.8-7.3), […] v/v oleic acid): 58 °C
Lipid Transition Temperature, Tm ([6]; 0/100 glycerin/0.1M Tris buffer (pH 6.8-7.3), […] v/v oleic acid): 58 °C
Lipid Transition Temperature, Tm ([6]; 0/100 v/v ethanol/Sorensen's buffer pH 7.3, […] v/v oleic acid): 57.5 °C
Lipid Transition Temperature, Tm ([6]; 20/40/40 ethanol/PG/0.1M Tris buffer (pH 6.8-7.3), […] v/v oleic acid): 55 °C
Lipid Transition Temperature, Tm ([6]; 20/80 PEG 200/0.1M Tris buffer (pH 6.8-7.3), […] v/v oleic acid): 59 °C
Lipid Transition Temperature, Tm ([6]; 20/80 ethanol/0.1M Tris buffer (pH 6.8-7.3), […] v/v oleic acid): 59 °C
Lipid Transition Temperature, Tm ([6]; 20/80 glycerin/0.1M Tris buffer (pH 6.8-7.3), […] v/v oleic acid): 62.5 °C
Lipid Transition Temperature, Tm ([6]; 20/80 v/v ethanol/Sorensen's buffer pH 7.3, […] v/v oleic acid): 54.5 °C
Lipid Transition Temperature, Tm ([6]; 30/70 v/v ethanol/Sorensen's buffer pH 7.3, […] v/v oleic acid): 54.0 °C
Lipid Transition Temperature, Tm ([6]; 33/33/34 ethanol/PG/0.1M Tris buffer (pH 6.8-7.3), […] v/v oleic acid): 59 °C
Lipid Transition Temperature, Tm ([6]; 34/66/0 ethanol/PG/0.1M Tris buffer (pH 6.8-7.3), […] v/v oleic acid): 61 °C
Lipid Transition Temperature, Tm ([6]; 40/20/40 ethanol/PG/0.1M Tris buffer (pH 6.8-7.3), […] v/v oleic acid): 58.5 °C
Lipid Transition Temperature, Tm ([6]; 40/40/20 ethanol/PG/0.1M Tris buffer (pH 6.8-7.3), […] v/v oleic acid): 60 °C
Lipid Transition Temperature, Tm ([6]; 40/60 PEG 200/0.1M Tris buffer (pH 6.8-7.3), […] v/v oleic acid): 57.5 °C
Lipid Transition Temperature, Tm ([6]; 40/60 ethanol/0.1M Tris buffer (pH 6.8-7.3), […] v/v oleic acid): 55 °C
Lipid Transition Temperature, Tm ([6]; 40/60 glycerin/0.1M Tris buffer (pH 6.8-7.3), […] v/v oleic acid): 57 °C
Lipid Transition Temperature, Tm ([6]; 40/60 v/v ethanol/Sorensen's buffer pH 7.3, […] v/v oleic acid): 53.2 ± 0.6 °C
Lipid Transition Temperature, Tm ([6]; 50/50 v/v ethanol/Sorensen's buffer pH 7.3, […] v/v oleic acid): 55.1 °C
Lipid Transition Temperature, Tm ([6]; 60/40 PEG 200/0.1M Tris buffer (pH 6.8-7.3), […] v/v oleic acid): 57 °C
Lipid Transition Temperature, Tm ([6]; 60/40 ethanol/0.1M Tris buffer (pH 6.8-7.3), […] v/v oleic acid): 59 °C
Lipid Transition Temperature, Tm ([6]; 60/40 glycerin/0.1M Tris buffer (pH 6.8-7.3), […] v/v oleic acid): 54 °C
Lipid Transition Temperature, Tm ([6]; 60/40 v/v ethanol/Sorensen's buffer pH 7.3, […] v/v oleic acid): 53.4 °C
Lipid Transition Temperature, Tm ([6]; 66/34/0 ethanol/PG/0.1M Tris buffer (pH 6.8-7.3), […] v/v oleic acid): 60 °C
Lipid Transition Temperature, Tm ([6]; 70/30 v/v ethanol/Sorensen's buffer pH 7.3, […] v/v oleic acid): 58.8 °C
Lipid Transition Temperature, Tm ([6]; 80/20 PEG 200/0.1M Tris buffer (pH 6.8-7.3), […] v/v oleic acid): 61 °C
Lipid Transition Temperature, Tm ([6]; 80/20 ethanol/0.1M Tris buffer (pH 6.8-7.3), […] v/v oleic acid): 61 °C
Lipid Transition Temperature, Tm ([6]; 80/20 glycerin/0.1M Tris buffer (pH 6.8-7.3), […] v/v oleic acid): 59 °C
Lipid Transition Temperature, Tm ([6]; 100/0 v/v ethanol/Sorensen's buffer pH 7.3, […] v/v oleic acid): 66.4 °C
Flux of Salicylic Acid [2]: 3.81 mg/cm^2 /hr
flux of salicylic acid (in words) [2]: significantly greater

Flux of Salicylic Acid [2]: 0.97 mg/cm^2 /hr
SMILES: CCCCCCCCCCC/C=C/CCCCC(=O)O [Petroseladic]
DSC Tm (temperature of the transition maximum) [1]: 62.0 °C
Peak IR Frequency [3]: 2919.0 cm⁻¹

Flux of Salicylic Acid [2]: 0.79 mg/cm^2 /hr
SMILES: CCCCCCCCCCC/C=C\CCCCC(=O)O [Petroselenic]
DSC Tm (temperature of the transition maximum) [1]: 60.5 °C
Peak IR Frequency [3]: 2919.0 cm⁻¹

SMILES: CN1C(C(=O)Nc2ccccn2)=C(O)c2ccccc2S1(=O)=O [Piroxicam, 4-hydroxy-2-methyl-N-2-pyridinyl-2H-1,2-benzothiazine-3-carboxamide 1,1-dioxide]
solubility ([7]; 0/100 ethanol/buffer): 40 µg/mL (≈ 121 µM)
solubility ([7]; 10/90 ethanol/buffer): 190 µg/mL (≈ 573 µM)
solubility ([7]; 20/80 ethanol/buffer): 460 µg/mL (≈ 1390 µM)
solubility ([7]; 30/70 ethanol/buffer): 710 µg/mL (≈ 2140 µM)
solubility ([7]; 40/60 ethanol/buffer): 1200 µg/mL (≈ 3620 µM)
solubility ([7]; 50/50 ethanol/buffer): 1500 µg/mL (≈ 4530 µM)
solubility ([7]; 100/0 ethanol/buffer): 1200 µg/mL (≈ 3620 µM)

SMILES: CCCCCCCCCCCCCCCCCC(=O)O [Stearic, stearic acid]
DSC Tm (temperature of the transition maximum) [1]: 62.5 ± 1.0 °C
Flux of Salicylic Acid [2, 8]: 1.21 mg/cm^2 /hr
Peak IR Frequency [3]: 2918.0 ± 0.4 cm⁻¹
Peak IR Frequency ([3]; listed as stearic acid): 2918 to 2919 cm⁻¹

SMILES: NC(CO)(CO)CO [Tris]
effect on oleic acid's action on stratum corneum lipids ([6]; concentration dependent): reduces the effect of oleic acid on stratum corneum lipids

SMILES: CCCCCC/C=C\CCCCCCCCCC(=O)O [cis-vaccenic, cis-11-octadecenoic acid]
DSC Tm (temperature of the transition maximum) [1]: 57.0 °C
flux of salicylic acid (in words) ([2]; difference relative to the controls and trans-vaccenic acid): even greater
Flux of Salicylic Acid [2, 8]: 5.53 mg/cm^2 /hr
